The text below walks through data of patent publication US8178522B2, “Thiazoles” (Hoffmann-La Roche Inc., priority 2009, dated 2012).

In the experiment the target is T1, GABA A α5 (α5β3γ2) (Homo sapiens, UniProt P18507+P31644).
T1 construct: expressed in transfected cells; host or cells: HEK293, transiently transfected; membrane preparation
In words: [3H]flumazenil competition binding, human GABA A α5 receptor. Particulars: human receptor α5β3γ2 transiently transfected in HEK293 cells; competition for [3H]flumazenil 0.5 nM; 1 hour at 4° C.; means of two determinations; read-out: hKi GABA A α5. The gist of the method: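 Competition with [3H]flumazenil at membranes from HEK293 cells transiently expressing human α5β3γ2, in Krebs-tris buffer pH 7.5. Equilibrium 1 hour at 4° C, filtration with ice-cold 50 mM Tris wash, scintillation counting. Ki values are means of two determinations.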
On to `CCCCc1noc(C)c1/C=C/c1nc(C)c(C(=O)NCC)s1` [Example 121, 2-[(E)-2-(3-Butyl-5-methyl-isoxazol-4-yl)-vinyl]-4-methyl-thiazole-5-carboxylic acid ethylamide], for which the Ki came out at 5 nM.
Next, `CCCCc1noc(C)c1/C=C/c1nc(C)c(C(=O)NC)s1` [Example 122, 2-[(E)-2-(3-Butyl-5-methyl-isoxazol-4-yl)-vinyl]-4-methyl-thiazole-5-carboxylic acid methylamide]: 5.7 nM; `CCCCc1noc(C)c1/C=C/c1nc(C)c(C(=O)N2CC3(COC3)C2)s1` [Example 123, {2-[(E)-2-(3-Butyl-5-methyl-isoxazol-4-yl)-vinyl]-4-methyl-thiazol-5-yl}-(2-oxa-6-aza-spiro[3.3]hept-6-yl)-methanone]: 1.1 nM.
Next, `CCCCc1noc(C)c1/C=C/c1ncc(C(=O)NC(C)C)s1` [Example 124, 2-[(E)-2-(3-Butyl-5-methyl-isoxazol-4-yl)-vinyl]-thiazole-5-carboxylic acid isoprop-ylamide]: 5.5 nM; `CCCCc1noc(C)c1/C=C/c1ncc(C(=O)NCCO)s1` [Example 125, 2-[(E)-2-(3-Butyl-5-methyl-isoxazol-4-yl)-vinyl]-thiazole-5-carboxylic acid (2-hydroxy-ethyl)-amide]: 6.6 nM; `CCOC(=O)c1cnc(OCc2c(-c3ccccc3)noc2C)s1` [Example 126, 2-(5-Methyl-3-phenyl-isoxazol-4-ylmethoxy)-thiazole-5-carboxylic acid ethyl ester]: 16.8 nM.
Next, `Cc1onc(-c2ccccc2)c1COc1ncc(C(=O)NC(C)C)s1` [Example 127, 2-(5-Methyl-3-phenyl-isoxazol-4-ylmethoxy)-thiazole-5-carboxylic acid isoprop-ylamide]: 2.2 nM; `Cc1onc(-c2ccccc2)c1COc1ncc(C(=O)NC2CCOCC2)s1` [Example 128, 2-(5-Methyl-3-phenyl-isoxazol-4-ylmethoxy)-thiazole-5-carboxylic acid (tetrahydro-pyran-4-yl)-amide]: 1.8 nM; `Cc1onc(-c2ccccc2)c1COc1ncc(C(=O)NC(C)CO)s1` (stereo not drawn) [Example 129, 2-(5-Methyl-3-phenyl-isoxazol-4-ylmethoxy)-thiazole-5-carboxylic acid (2-hydroxy-1-methyl-ethyl)-amide]: 4.2 nM.
As for `Cc1onc(-c2ccccc2)c1COc1ncc(C(=O)NCCO)s1` [Example 130, 2-(5-Methyl-3-phenyl-isoxazol-4-ylmethoxy)-thiazole-5-carboxylic acid (2-hydroxy-ethyl)-amide], the Ki turned out to be 5.4 nM.
Under `Cc1onc(-c2ccccc2)c1COc1ncc(C(=O)NC(C)(C)CO)s1` [Example 131, 2-(5-Methyl-3-phenyl-isoxazol-4-ylmethoxy)-thiazole-5-carboxylic acid (2-hydroxy-1,1-dimethyl-ethyl)-amide] stands 12.7 nM.
Consider `CCCCc1noc(C)c1COc1ncc(C(=O)NC(C)C)s1` [Example 132, 2-(3-Butyl-5-methyl-isoxazol-4-ylmethoxy)-thiazole-5-carboxylic acid isopropylamide], for which the Ki amounted to 10.2 nM.
Turning to `CCCCc1noc(C)c1COc1ncc(C(=O)NCCO)s1` [Example 134, 2-(3-Butyl-5-methyl-isoxazol-4-ylmethoxy)-thiazole-5-carboxylic acid (2-hydroxy-ethyl)-amide], the Ki amounted to 21.5 nM.
As to `Cc1onc(-c2ccccc2)c1CNc1ncc(C(=O)NC(C)C)s1` [Example 135, 2-[(5-Methyl-3-phenyl-isoxazol-4-ylmethyl)-amino]-thiazole-5-carboxylic acid isoprop-ylamide], the Ki was determined as 9 nM.
Next, `Cc1onc(-c2ccccc2)c1CNc1ncc(C(=O)NC2CCOCC2)s1` [Example 136, 2-[(5-Methyl-3-phenyl-isoxazol-4-ylmethyl)-amino]-thiazole-5-carboxylic acid (tetra-hydro-pyran-4-yl)-amide]: 27.5 nM.
